From patent US5541182A, “Benzodiazepine aryl urea derivatives” (Yamanouchi Pharmaceutical Co., Ltd., priority 1990, dated 1996) come the findings set out here.

By Ki is commonly meant a measure of affinity in units of concentration, obtained from inhibition or displacement. A word on the ED50: it is the midpoint of the dose-response relation. Read a low ED50 as greater potency.

Test [1] has as its system benzodiazepine receptor. Put plainly: Binding to the benzodiazepine receptor. Conditions: even at 10 μM.
In test [2] the target is T1, CCK-B receptor (Rattus norvegicus, UniProt P30553).
T1 construct: the whole brain was immediately excised from each of the cut heads and homogenized; from tissue; host or cells: SD rat whole brain, membrane preparation
Description: Binding action upon CCK-B receptor ([125I]BH.CCK-8, rat whole brain membrane). Set-up: species or system SD rat. Conditions: [125I]BH.CCK-8, 25° C., 120 min, pH 6.5. The method, then:
Measurement of the binding action upon CCK-B receptor:
About 100 heads of SD rats were decapitated without anesthesia, the whole brain was immediately excised from each of the cut heads and homogenized in 10-fold volume of 0.32M aqueous solution of sucrose by the use of a Teflon-coated homogenizer, the homogenate thus obtained was centrifuged for ten minutes at 900 g by the use of a cooled centrifuge, and the supernatant was further centrifuged for 15 minutes at 11500 g. The precipitate thus obtained was dispersed in 50 mM Tris-HCl buffer (pH 7.4) containing 0.08% Triton X-100, this suspension was allowed to stand for 30 minutes and again centrifuged for 15 minutes at 11500 g, the precipitate thus obtained was washed twice with 5 mM Tris-HCl buffer and twice with 50 mM Tris-HCl buffer in that order through centrifugal separation, the washed precipitate was suspended in 50 mM Tris-HCl buffer, and the suspension thus obtained was freeze-stored at -80° C., thus giving membrane preparation.
The membrane preparation was molten at room temperature, diluted with 10 mM HEPES buffer (containing 130 mM NaCl, 5 mM MgCl2, 1 mM EGTA and 0.25 mg/ml bacitracin; pH 6.5) and incubated at 25° C. for 120 minutes in the presence of [^125 I]BH.cndot.CCK-8, and B/F separation was performed by suction filtration. Nonspecific binding was determined in the presence of 1 μM CCK-8. The amount of labelled ligand bound to the receptor was measured by the use of a […]; Ki (CCK-B) values were determined from the binding inhibition curve of the test sample, with the maximum amount of labelled ligand bound to the receptor being set as 100%.

Test [3] deals with CCK-A receptor vs CCK-B receptor. Description: Selectivity for CCK-B receptor by comparison with binding to CCK-A receptor (rat pancreas membrane, [3H]L-364,718). Also noted: species or system SD rat. Conditions: rat pancreas (CCK-A) vs rat brain (CCK-B). The method, then: Measurement of selectivity for CCK-B receptor by comparison with the binding to CCK-A receptor in rats:
The pancreas of an SD rat was homogenized in 20-fold volume of 50 mM Tris-HCl buffer (pH 7.7) by the use of a Polytrone-type homogenizer, the homogenate was twice centrifuged for 10 minutes at 50000 g by the use of an ultracentrifuge, the precipitate thus obtained was suspended in 40-fold volume of 50 mM Tris-HCl buffer (containing 0.2% BSA, 5 mM MgCl2, 0.1 mg/ml bacitracin and 5 mM DTT; pH 7.7), and the suspension was freeze-stored at -80° C., thus giving membrane preparation.
The membrane preparation was then molten at room temperature, diluted ten times with the buffer and incubated at 37° C. for 30 minutes in the presence of [^3 H]L-364, 718, and B/F separation was performed by suction filtration. Nonspecific binding was determined in the presence of 1 μM L-364, 718. The amount of labelled ligand bound to the receptor was measured by the use of a liquid scintillation counter; Ki (CCK-A) values were determined from the binding inhibition curve of the test sample, with the maximum amount of labelled ligand bound to the receptor being set as 100%.
The Ki (CCK-A)/Ki (CCK-B) value of the present compound can be calculated from the above test. The higher the value of Ki (CCK-A)/Ki (CCK-B), the higher will be the selectivity to the CCK-B receptor.

Test [4] relates to gastric-acid secretion caused by the stimulus of pentagastrin. Put plainly: Depression of gastric-acid secretion caused by the stimulus of pentagastrin. It counts as in vivo. As to conditions: Rattus norvegicus, iv; SD rats, urethane anesthetized, i.v. test drug, pentagastrin 15 μg/kg/hr i.v. The text has this: Measurement of the action of depressing the gastric-acid secretion caused by the stimulus of pentagastrin:
A cannula was inserted into the trachea of a rat anesthetized with urethane (intraperitoneally administered in an amount of 1.25 g/kg), its abdominal wall was incised to expose the gastric and duodenal portions, and a polyethylene cannula was set at the anterior stomach after ligation of the cardia. The duodenum was then subjected to slight section, a polyethylene cannula was inserted from the incised portion toward the stomach, and the pylorus was ligated to fix the cannula.
Physiological saline (with pH adjusted to 7.0) was flown from the anterior stomach toward the pylorus at a speed of 3 ml/min, and the gastric-acid secretion was measured by continuous titration of the flown saline by the use of a pH-stat (AUT-201; product of Toa Electronics, Ltd.). The continuous titration was carried out by using 25 mM caustic soda solution until the pH reached 7.0, and the result was expressed as the amount of gastric acid secreted for every ten minutes (μEq /10 min.). Pentagastrin was intravenously administered at a rate of 15 μg/kg/hr. The secretion of gastric acid increased upon administration of pentagastrin, reaching the maximum level after 60 minutes and stably maintaining this level after that. […]

The structures appear in SMILES notation.

T1 sequence (P30553 whole entry): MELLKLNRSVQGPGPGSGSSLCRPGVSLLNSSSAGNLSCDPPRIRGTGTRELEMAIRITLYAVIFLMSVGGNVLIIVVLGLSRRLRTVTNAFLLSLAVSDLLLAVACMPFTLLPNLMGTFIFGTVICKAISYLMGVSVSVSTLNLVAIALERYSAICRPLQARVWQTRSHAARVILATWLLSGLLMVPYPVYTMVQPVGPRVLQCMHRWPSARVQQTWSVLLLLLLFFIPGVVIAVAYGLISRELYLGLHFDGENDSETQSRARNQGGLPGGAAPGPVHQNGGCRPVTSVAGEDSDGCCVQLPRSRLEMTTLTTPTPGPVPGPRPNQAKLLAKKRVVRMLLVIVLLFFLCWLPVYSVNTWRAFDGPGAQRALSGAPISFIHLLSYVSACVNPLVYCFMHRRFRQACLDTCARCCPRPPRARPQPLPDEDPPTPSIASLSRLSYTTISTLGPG

Take `Cc1cccc(NC(=O)N[C@@H]2N=C(c3ccccc3)c3ccccc3N(CC(=O)c3ccccc3C)C2=O)c1` [Example 16, (R)-1-[2,3-dihydro-1-(2'-methylphenacyl)-2-oxo-5-phenyl-1H-1,4-benzodiazepin-3-yl]-3-(3-tolyl)urea]: the “binding action to the benzodiazepine receptor (in words)” value in test [1] is given as “no binding action at all”. Turning to `Cc1ccc(C(=O)CN2C(=O)C(NC(=O)Nc3cccc(C)c3)N=C(c3ccccc3)c3ccccc32)cc1` (stereo not shown) [Example 7, 1-[2,3-Dihydro-1-(4'-methylphenacyl)-2-oxo-5-phenyl-1H-1,4-benzodiazepin-3-yl]-3-(3-tolyl)urea], the Ki in test [2] was found to be 0.22 nM. In test [3], the “Ki (CCK-A)/Ki (CCK-B), selectivity for the CCK-B receptor” value was determined as 864 fold.

`Cc1cccc(NC(=O)NC2N=C(c3ccccc3)c3ccccc3N(CC(=O)c3sccc3C)C2=O)c1` (stereo not shown) [Example 13, 1-[2,3-Dihydro-1-(3-methyl-2-thenoyl)methyl-2-oxo-5-phenyl-1H-1,4-benzodiazepin-3-yl]-3-(3-tolyl)urea] showed a Ki in test [2] of 0.16 nM.

Take `Cc1cccc(NC(=O)NC2N=C(c3ccccc3)c3ccccc3N(CC(=O)c3ccccc3C)C2=O)c1` (stereo not shown) [Example 2, 1-[2,3-dihydro-1-(2'-methylphenacyl)-2-oxo-5-phenyl-1H-1,4-benzodiazepin-3-yl]-3-(3-tolyl)urea]: the ED50 in test [4] was 0.03 µmol/kg. Affinity in test [2] was put at a Ki of 0.15 nM. Further, the “Ki (CCK-A)/Ki (CCK-B), selectivity for the CCK-B receptor” value in test [3] came out at 1733 fold.
